Source: PubChem BioAssay (NCI)
Where “and” joins values, the source holds several entries; their conditions need not be identical. Identical values can stand only once.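 Values below derive from 48-hour exposures of cells grown in 96-well plates, with endpoints linearly interpolated between the two concentrations bracketing the appropriate inhibition level. GI50: concentration for 50% inhibition of growth. At the TGI there is no net growth.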

Assays:
Assay in all cases: NCI tumour cell line growth inhibition, 48 h
[1] = tested on: CAKI-1 renal
[2] = tested on: HL-60(TB) leukemia
[3] = tested on: K-562 leukemia
[4] = tested on: LOX IMVI melanoma
[5] = tested on: MALME-3M melanoma
[6] = tested on: OVCAR-5 ovarian
[7] = tested on: UACC-257 melanoma
[8] = tested on: CCRF-CEM leukemia
[9] = tested on: PC-3 prostate
[10] = tested on: T-47D breast

## CC[O-].CC[O-].O=C([CH-]C(=O)c1cccnc1)c1ccccc1.O=C([CH-]C(=O)c1cccnc1)c1ccccc1.[Ti+4]
[1]
  GI50: > 100 µM
  TGI: > 100 µM
[2]
  GI50: 27.9 µM
  TGI: 85 µM
[3]
  GI50: 36.2 µM
  TGI: > 100 µM
[4]
  GI50: > 100 µM
  TGI: > 100 µM
[5]
  GI50: > 100 µM
  TGI: > 100 µM
[6]
  GI50: > 100 µM
  TGI: > 100 µM
[7]
  GI50: 52.2 µM
  TGI: > 100 µM

## O=S(=O)(Cc1ccc(Cl)cc1Cl)c1ccc(Cl)cc1
[1]
  GI50: 0.52 µM
  TGI: > 100 µM
[8]
  GI50: 0.505 µM
  TGI: > 100 µM
[2]
  GI50: 0.37 µM
  TGI: 17.7 µM
[3]
  GI50: 0.303 µM
  TGI: > 100 µM
[4]
  GI50: 0.587 µM
  TGI: > 100 µM
[6]
  GI50: 4.28 µM
  TGI: > 100 µM
[9]
  GI50: 1.28 µM
  TGI: > 100 µM
[10]
  GI50: 6.02 µM
  TGI: > 100 µM

## O=c1cc(-c2ccccc2)oc2cc(O)c(O)c(O)c12
[1]
  GI50: 4.57 µM
  TGI: 19 µM
[8]
  GI50: 2.39 µM
  TGI: > 100 µM
[2]
  GI50: 55.1 µM
  TGI: > 100 µM
[3]
  GI50: 12.6 µM
  TGI: > 100 µM
[4]
  GI50: 28 µM
  TGI: > 100 µM
[6]
  GI50: 30 µM
  TGI: 88.5 µM
[9]
  GI50: 17.4 µM
  TGI: > 100 µM
[10]
  GI50: 23.7 µM
  TGI: > 100 µM
[7]
  GI50: 39 µM
  TGI: > 100 µM

## CCC1C(=O)OCc2c1cc1n(c2=O)Cc2cc3ccccc3nc2-1 (configuration not stated)
[1]
  TGI: 16.3 µM
[2]
  TGI: > 36.2 µM
[3]
  TGI: > 100 µM
[4]
  TGI: > 51.2 µM
[5]
  TGI: > 100 µM
[6]
  TGI: > 100 µM
[9]
  TGI: > 100 µM
[10]
  TGI: > 90.2 µM
[7]
  TGI: > 100 µM

## [Cl][Sn]([Cl])([c]1ccccc1)[c]1ccccc1
[1]
  GI50: 2.29 µM
  TGI: 6.52 µM
[8]
  GI50: 1.74 µM
  TGI: 5.76 µM
[2]
  GI50: 4.03 µM
  TGI: 31.1 µM
[3]
  GI50: 2.69 µM
  TGI: 12.3 µM
[4]
  GI50: 4.51 µM
  TGI: 17.1 µM
[5]
  GI50: 2.68 µM
  TGI: 8.01 µM
[6]
  GI50: 15.8 µM
  TGI: 29.3 µM
[7]
  GI50: 13.6 µM
  TGI: 27 µM

## S=C(N/N=C(/c1ccccc1)c1ccccn1)N1CCCCC1
[1]
  GI50: 0.107 µM
  TGI: 1.66 µM and 2.33 µM
[8]
  GI50: < 0.001 µM
  TGI: 0.0332 µM
[3]
  GI50: < 0.001 µM
  TGI: < 0.001 µM
[4]
  TGI: 1.95 µM and 1.32 µM
[5]
  GI50: 0.00735 µM
  TGI: 2.27 µM and 2.2 µM
[6]
  GI50: < 0.001 µM
  TGI: 2.49 µM and 2.11 µM
[9]
  GI50: < 0.001 µM
  TGI: 1.6 µM and 4.08 µM
[10]
  GI50: < 0.001 µM
  TGI: 1.01 µM and 2.9 µM
[7]
  GI50: < 0.001 µM
  TGI: 1.04 µM and 1.16 µM

## Nc1nc2sc3ccccc3c(=O)n2n1
[1]
  TGI: > 100 µM
[8]
  TGI: > 100 µM
[2]
  TGI: > 100 µM
[3]
  TGI: > 100 µM
[4]
  TGI: > 100 µM
[5]
  TGI: > 100 µM
[6]
  TGI: > 100 µM
[7]
  TGI: > 100 µM

## Cc1cc(Cl)cc2c(N=Nc3ccccc3[N+](=O)[O-])c(O)[nH]c12
[1]
  TGI: > 100 µM
[8]
  TGI: > 100 µM
[2]
  TGI: > 100 µM
[3]
  TGI: > 100 µM
[4]
  TGI: > 100 µM
[6]
  TGI: > 100 µM
[9]
  TGI: > 100 µM
[10]
  TGI: > 100 µM
[7]
  TGI: > 100 µM
